Consider three compounds from PubChem BioAssay AID1963432 (Molecular Pharmacology Branch, DTP, NCI, 2024).

Where “and” joins values, the source holds several entries; their conditions need not be identical. Equal entries are not always repeated.

The experiment deals with SYO-1 complex spheroid growth, percent test/control. Put plainly: Anticancer human tumor SYO-1 cell line growth inhibition [Asc].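 On all read-outs here: compound exposure lasted 7 days after spheroids grew 3 days.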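 On viability, T/C: 100% = DMSO vehicle control viability.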 The conditions noted are these: for viability, T/C: stronger effect = lower value. The method, then: Multicellular complex tumor spheroid response to apoptosis pathway targeting inhibitors Alrizomadlin, Pelcitoclax, and Dasminapant in combination with a variety of drugs and investigational agents in selected tumor cell lines
The MDM2 inhibitor alrizomadlin, the Bcl-2/Bcl-xL inhibitor pelcitoclax, and the IAPs inhibitor dasminapant were evaluated both individually and in combination with standard of care and investigational anticancer small molecules within a complex spheroid model of solid tumors. . Complex spheroids include a stromal component modeled by human endothelial cells (HUVEC) and fibroblasts modeled by human mesenchymal stem cells (MSCs). The concentration ranges selected for each drug and investigational agent were based upon clinically achievable concentrations if the clinical Cmax of the agent was known.
Compounds. The drugs and investigational agents: alrizomadlin (APG-115; NSC831270), pelcitoclax (APG-1252; NSC835773), dasminapant (APG-1387;NSC834197), TAK-243 (NSC785004), copanlisib (NSC809693), olaparib (NSC753686), talazoparib (NSC767125), cobimetinib (NSC 768068), eltanexor (KPT-8602, NSC 794443), abemaciclib (NSC 768073), sotorasib (NSC818433), adagrasib (NSC 831453), MRTX-1133 (NSC 836407), Iadademestat (ORY1001, NSC 806812), and RMC-4630 (NSC839698), were obtained from the NCI Developmental Therapeutics Program Chemical Repository. The FDA-approved anticancer drug set is available from the Developmental Therapeutics Program at https://dtp.cancer.gov/organization/dscb/obtaining/available plates.htm. […] The stock solutions were prepared in dimethyl sulfoxide (DMSO, Sigma-Aldrich, St. Louis, MO, cat. D2650) at 800-fold the tested concentration and stored at -70 degrees C prior to their use. All drugs and investigational agents were tested over a range starting from a high concentration at or near the clinical Cmax and decreasing in half-log increments. If the clinical Cmax for an agent had not been determined, the highest concentration tested was 10 microM.
The patient-derived cancer (PDC) cell lines include five colon adenocarcinomas: 186277-243-T-J2-PDC, 616215-338-R-J1-PDC, 439559-082-T-J2-PDC, 463943-066-T-J2-PDC, and 519858-162-T-J1-PDC; three pancreatic carcinomas: 323965-272-R-J2-PDC, 521955-158-R6-J3-PDC, and 521955-158-R2-J5-PDC; two uterine sarcomas: 327498-152-R-J2-PDC and 993429-296-R-J1-PDC; two rhabdomyosarcomas: 755483-174-R-J1-PDC and 772245-204-R-J1-PDC; two soft tissue sarcomas: 126254-015-R-J1-PDC and 494315-158-R-J1-PDC; two malignant fibrous histiocytomas: 317291-083-R-J1-PDC and 596521-263-R-J1-PDC; two breast carcinomas: 171881-019-R-J1-PDC and 885512-296-R-J2-PDC; and one ovarian carcinoma: 6556581-035-R-J-PDC were obtained from the NCI PDMR, (https://pdmr.cancer.gov). The established cell lines HSSY-2 synovial sarcoma (RRID:CVCL 8719), SYO-1 synovial sarcoma (RRID:CVCL_7146), MPNST malignant peripheral neural sheath tumor were obtained from the Sloan Kettering Institute. The following established cell lines were purchased from the American Type Culture Collection (ATCC, Manassas, VA), Sor the received from the NCI repository:, PANC-1 pancreatic carcinoma (CRL-1469, RRID:CVCL_0480), OVCAR-5 ovarian carcinoma (RRID:CVCL_1628), OVCAR-8 ovarian carcinoma (RRID:CVCL_1629), , MCF-7 breast carcinoma (CRL-12584, RRID:CVCL_0031), MDA-MB-231 breast carcinoma (CRL-12532, RRID:CVCL_0062), NCI-H1876 small cell lung carcinoma (CRL-5902, RRID:CVCL_1503), NCI-H510A small cell lung carcinoma (HTB-184, RRID:CVCL_1565), NCI-H1417 (CRL-5869, RRID:CVCL_1469), and NCI-H196 small cell lung carcinoma (CRL-5823, RRID:CVCL_1509). Dr. Peter Houghton (Greehey Children's Cancer Research Institute, University of Texas Health Science Center, San Antonio, TX) provided Rh-18 rhabdomyosarcoma (RRID:CVCL_1659). Pooled donor human umbilical vein endothelial cells (HUVEC, Lonza, cat. CC-2519) and human mesenchymal stem cells (hMSC, Lonza, cat. PT-2501) were purchased from Lonza (Walkersville, MD).
Cell Culture. […]

One may read the viability, T/C as the ratio of treated to control. As a reminder, the IC50 is the point on the concentration scale where inhibition reaches its midpoint. As to `NC(=O)C(=Cn1cnc(-c2cc(C(F)(F)F)cc(C(F)(F)F)c2)n1)c1cncnc1`, the viability, T/C by setting is: (compound 0.000949 µM) 97.3% and 93.8% and 106%; (compound 0.003 µM) 98.8% and 101% and 104%; (compound 0.00949 µM) 97.4% and 98% and 95.6%; (compound 0.03 µM) 96.9% and 95.8% and 107%; (compound 0.0949 µM) 95.9% and 94.2% and 99.5%; (compound 0.3 µM) 13.3% and 16.5% and 42.3%. Besides, under “curve of compound”, the concentration for half-maximal inhibition (IC50) is 180 nM and 183 nM and 257 nM.
On to `Cn1ncnc1[C@H]1c2n[nH]c(=O)c3cc(F)cc(c23)N[C@@H]1c1ccc(F)cc1`, for which the viability, T/C is, setting by setting: (compound 0.000316 µM) 105% and 109% and 104%; (compound 0.001 µM) 103% and 106% and 95.2%; (compound 0.00316 µM) 104% and 97.3% and 107%; (compound 0.01 µM) 87.3% and 95.5% and 98.1%; (compound 0.0316 µM) 53.5% and 74.9% and 64.4%; (compound 0.1 µM) 15% and 91.9% and 12.5%. Besides, the IC50 (curve of compound) was 34.8 nM and > 100 nM and 43.5 nM.
On to `C=C(F)C(=O)N1CCN(c2nc(OCC3CCCN3C)nc3c2CCN(c2cccc4cccc(Cl)c24)C3)CC1CC#N` (stereo unspecified) + Cc1c(S(C)(=O)=O)c(-c2cc(F)cc(N3CCN(c4ccc(NS(=O)(=O)c5ccc(NC(CCN6CCC(C(=O)OCCCP(=O)(O)O)CC6)CSc6ccccc6)c(S(=O)(=O)C(F)(F)F)c5)cc4)CC3)c2)c(-c2ccc(Cl)cc2)n1C(C)C, for which the 50% inhibitory concentration (IC50) is, setting by setting: (curve of first compound, second compound 0.0316 µM) 4950 nM; (curve of first compound, second compound 0.1 µM) 3360 nM; (curve of first compound, second compound 0.316 µM) 1740 nM; (curve of first compound, second compound 1 µM) 1730 nM; (curve of first compound, second compound 3.16 µM) 1670 nM; (curve of first compound, second compound 10 µM) 1590 nM. For the same compound, the viability, T/C runs as follows: (second compound 0.0316 µM, first compound 0.0316 µM) 97.2%; (second compound 0.0316 µM, first compound 0.1 µM) 87.6%; (second compound 0.0316 µM, first compound 0.316 µM) 97.8%; (second compound 0.0316 µM, first compound 1 µM) 101%; (second compound 0.0316 µM, first compound 3.16 µM) 81.6%; (second compound 0.0316 µM, first compound 10 µM) 0.62%. Also, the viability, T/C was 92.7% (second compound 0.1 µM, first compound 0.0316 µM); 96.7% (second compound 0.1 µM, first compound 0.1 µM); 96.3% (second compound 0.1 µM, first compound 0.316 µM); 98.3% (second compound 0.1 µM, first compound 1 µM); 52.8% (second compound 0.1 µM, first compound 3.16 µM); 0.77% (second compound 0.1 µM, first compound 10 µM). Also, the viability, T/C was 98.8% (second compound 0.316 µM, first compound 0.0316 µM); 97% (second compound 0.316 µM, first compound 0.1 µM); 97.3% (second compound 0.316 µM, first compound 0.316 µM); 95.1% (second compound 0.316 µM, first compound 1 µM); 1.32% (second compound 0.316 µM, first compound 3.16 µM); 0.42% (second compound 0.316 µM, first compound 10 µM). Moreover, the viability, T/C (second compound 1 µM, first compound 0.0316 µM) was 89.6%; the viability, T/C (second compound 1 µM, first compound 0.1 µM) was 89.7%; the viability, T/C (second compound 1 µM, first compound 0.316 µM) is 88.4%; the viability, T/C (second compound 1 µM, first compound 1 µM) was 109%; the viability, T/C (second compound 1 µM, first compound 3.16 µM) is 0.8%; the viability, T/C (second compound 1 µM, first compound 10 µM) is 1.26%. For the same compound, the viability, T/C (second compound 3.16 µM, first compound 0.0316 µM) was 92.9%; the viability, T/C (second compound 3.16 µM, first compound 0.1 µM) was 78.6%; the viability, T/C (second compound 3.16 µM, first compound 0.316 µM) is 87.8%; the viability, T/C (second compound 3.16 µM, first compound 1 µM) was 97.6%; the viability, T/C (second compound 3.16 µM, first compound 3.16 µM) is 0.94%; the viability, T/C (second compound 3.16 µM, first compound 10 µM) is 1.06%. Also, the viability, T/C (second compound 10 µM, first compound 0.0316 µM) was 89.5%; the viability, T/C (second compound 10 µM, first compound 0.1 µM) was 78.9%; the viability, T/C (second compound 10 µM, first compound 0.316 µM) was 71.5%; the viability, T/C (second compound 10 µM, first compound 1 µM) was 91.6%; the viability, T/C (second compound 10 µM, first compound 3.16 µM) is 0.9%; the viability, T/C (second compound 10 µM, first compound 10 µM) is 0.74%.
